Test systems include UACC-62; A549; DLD-1; EKVX; MOLT-4; UACC-257; SNB-19; NCI-H23; A498; KM12; OVCAR-8; HT-29; SN12C; NCI-H460; HCT-15; OVCAR-5; DMS-273; SF-539; SNB-75; Malme-3M.
Assay in all cases: DTP human tumour cell line panel, 48 h

SMILES strings stand for the structures.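 Exposure lasted 48 hours, with cells grown in 96-well plates and compounds tested at five concentrations. Abbreviation: GI50, concentration required for 50% inhibition of growth.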 Active and inactive are the calls of the source. Cut-off read from the data, not from the text of the source: active = GI50 up to about 1.1 µM and inactive = higher.

This is an account of results in ChEMBL document CHEMBL1201862, “PubChem BioAssay data set” (2004).

In general, GI50 refers to the concentration giving 50% growth inhibition.

Regarding `C=C1CC(OC)(C(OC)C(=O)N(C)[C@H]2OCO[C@H]3C2O[C@H](C[C@@H](COC)OC)C(C)(C)C3OC)O[C@H](C)[C@@H]1C` (some centres undefined), the GI50 with UACC-62 was 14.5 µM (inactive); with A549 it was 16 µM (inactive); in the assay on DLD-1 it was 18.3 µM (inactive); with EKVX, 17 µM (inactive); with MOLT-4, 7.18 µM (inactive); with UACC-257, 11.6 µM (inactive). In addition, the GI50 in the assay with SNB-19 is 8.97 µM (inactive); in the assay on NCI-H23, 9.57 µM (inactive); with A498 it was 12 µM (inactive); in the assay on KM12 it was 5.33 µM (inactive); in the assay on OVCAR-8, 8.43 µM (inactive); with HT-29, 5.77 µM (inactive). The GI50 in the assay on SN12C was 22.5 µM (inactive); in the assay with NCI-H460, 9.46 µM (inactive); in the assay with HCT-15, 18 µM; in the assay with OVCAR-5, 26.7 µM (inactive); with DMS-273 it was 6.9 µM (inactive); in the assay on SF-539, 14.2 µM (inactive). Further, in the assay with SNB-75, the GI50 was 4.4 µM (inactive).
With `CC(=O)N1C(=O)/C(=C\C(=O)c2ccc(Cl)cc2)c2ccccc21`, the GI50 is 13.4 µM (inactive) in the assay with UACC-62; 13.5 µM (inactive) in the assay with A549; 17.6 µM (inactive) with EKVX; 3.43 µM (inactive) in the assay with MOLT-4; 14.9 µM (inactive) in the assay on UACC-257; 24.8 µM (inactive) in the assay on SNB-19. For the same compound, the GI50 in the assay with NCI-H23 is 15.6 µM (inactive); with A498, 19.2 µM (inactive); in the assay on KM12, 16.9 µM (inactive); with OVCAR-8 it was 14.1 µM (inactive); with HT-29, 4.32 µM (inactive); in the assay on Malme-3M, 16.3 µM (inactive). Moreover, the GI50 in the assay with SN12C is 15.3 µM (inactive); in the assay with NCI-H460, 15 µM (inactive); in the assay with HCT-15, 6.73 µM; in the assay with OVCAR-5, 20 µM (inactive); in the assay with SF-539, 12.2 µM (inactive); in the assay with SNB-75, 17.7 µM (inactive).
`CO/N=C1/c2sccc2[C@H](NC(=O)C(Cc2ccccc2)NC(=O)OC(C)(C)C)[C@@H]1O` (some centres undefined): the GI50 with UACC-62 is > 100 µM (inactive); in the assay with A549 it was > 100 µM (inactive); in the assay on EKVX, > 100 µM (inactive); with MOLT-4 it was 93.3 µM (inactive); with UACC-257 it was > 100 µM (inactive); in the assay with SNB-19 it was > 100 µM (inactive). Also, the GI50 in the assay on NCI-H23, in the assay on A498, in the assay with OVCAR-8, with HT-29, with Malme-3M and in the assay with SN12C was > 100 µM (inactive) in each case. For the same compound, the GI50 is > 100 µM (inactive) in the assay on NCI-H460; over 100 µM with HCT-15; > 100 µM (inactive) in the assay with OVCAR-5; > 100 µM (inactive) in the assay on SF-539; > 100 µM (inactive) in the assay with SNB-75.
Turning to `CNC(=S)N/N=C(/C)CCC/C(C)=N/NC(=S)NC`, the GI50 in the assay on UACC-62 was > 58.2 µM (inactive); in the assay with A549, 5.45 µM (inactive); in the assay on EKVX, 0.778 µM (active); in the assay with MOLT-4 it was 0.0414 µM (active); in the assay on UACC-257, > 100 µM (inactive); in the assay with SNB-19 it was > 100 µM (inactive). In addition, the GI50 in the assay with NCI-H23 is > 100 µM (inactive); with A498, > 75 µM (inactive); with KM12 it was > 100 µM (inactive); in the assay with OVCAR-8 it was 57.4 µM (inactive); in the assay on HT-29 it was 0.499 µM (active); with Malme-3M, > 90.4 µM (inactive). For the same compound, the GI50 with SN12C is > 74.5 µM (inactive); in the assay on NCI-H460, > 56.9 µM (inactive); in the assay with HCT-15 it was 11 µM; in the assay with OVCAR-5, 1 µM (active); in the assay with SF-539, > 100 µM (inactive); in the assay on SNB-75, 29 µM (inactive).
Turning to `N#CCCN(CCC#N)c1ccc(/C=C2\N=C(c3cc([N+](=O)[O-])ccc3Cl)N(S(=O)(=O)c3ccccc3)C2=O)cc1`, the GI50 in the assay with UACC-62, in the assay on A549, in the assay on DLD-1, with EKVX, in the assay on MOLT-4 and in the assay with SNB-19 was > 100 µM (inactive) in each case. The GI50 in the assay on NCI-H23 was > 100 µM (inactive); with KM12 it was > 100 µM (inactive); with OVCAR-8, > 100 µM (inactive); in the assay with Malme-3M, > 100 µM (inactive); in the assay with SN12C, > 100 µM (inactive); in the assay on HCT-15, over 100 µM. For the same compound, the GI50 with OVCAR-5, in the assay with DMS-273 and in the assay with SF-539 was > 100 µM (inactive) each time.
With `CCCCN(CCCC)C(=O)C(=O)C(C(=O)C(=O)OC)c1nc2ccccc2o1` (centres undefined), the GI50 is > 100 µM (inactive) in the assay on A549; 53.8 µM (inactive) in the assay with DLD-1; 29 µM (inactive) with MOLT-4; > 100 µM (inactive) in the assay with UACC-257; > 100 µM (inactive) in the assay on SNB-19; > 100 µM (inactive) in the assay on NCI-H23. For the same compound, the GI50 in the assay on A498, in the assay with KM12, in the assay with OVCAR-8, with HT-29, in the assay on Malme-3M and with SN12C was > 100 µM (inactive) each time. In addition, the GI50 is > 100 µM (inactive) with NCI-H460; 44.5 µM in the assay with HCT-15; > 100 µM (inactive) with OVCAR-5; > 100 µM (inactive) in the assay with DMS-273; > 100 µM (inactive) in the assay with SF-539; > 100 µM (inactive) with SNB-75.
As to `CC1(C)O[C@H]2OC(CO)C(OS(C)(=O)=O)[C@H]2O1` (some centres undefined), the GI50 in the assay on UACC-62, with A549, in the assay on EKVX, with UACC-257, in the assay with SNB-19 and with NCI-H23 was > 100 µM (inactive) throughout. Also, the GI50 with A498, in the assay on KM12, in the assay on OVCAR-8, in the assay with HT-29, in the assay with Malme-3M and in the assay with SN12C was > 100 µM (inactive) throughout. The GI50 with NCI-H460 is > 100 µM (inactive); with HCT-15, over 100 µM; in the assay on OVCAR-5 it was > 100 µM (inactive); with SF-539, > 100 µM (inactive); in the assay with SNB-75, > 100 µM (inactive).
`CN(C)CCCNC(=O)c1c(-c2cccnc2)cnc2ccccc12`: the GI50 with UACC-62, in the assay on A549, in the assay with EKVX, in the assay with MOLT-4, in the assay on UACC-257 and in the assay with SNB-19 was > 100 µM (inactive) in each case. Besides, the GI50 was > 100 µM (inactive) with NCI-H23; > 10 µM (inactive) in the assay on KM12; > 100 µM (inactive) with OVCAR-8; > 100 µM (inactive) in the assay with HT-29; > 100 µM (inactive) with Malme-3M; > 100 µM (inactive) with SN12C. Besides, the GI50 in the assay with NCI-H460 is > 100 µM (inactive); in the assay on HCT-15 it was over 100 µM; in the assay on OVCAR-5 it was > 100 µM (inactive); in the assay with SF-539, > 100 µM (inactive); in the assay with SNB-75, 14.9 µM (inactive).
